Measured values from PubChem BioAssay AID1963834 (Molecular Pharmacology Branch, DTP, NCI, 2024).

Tested on: 873145-292-R-J1-PDC complex spheroid viability
Assay: Anticancer human tumor 873145-292-R-J1-PDC patient-derived renal clear cell carcinoma cell line growth inhibition [POLQ]
Conditions: for IC50: curve of first compound; for viability, T/C: stronger effect = lower value
Summary of the method: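 Patient-derived tumour cells were co-cultured with HUVEC and mesenchymal stem cells as multicellular spheroids at 37 °C. They were treated with POLQ inhibitors (novobiocin, ART-558, RP6685) alone or combined with other agents. Top concentrations were at or near clinical Cmax (otherwise 10 microM; SN-38 at 1 microM), decreasing in half-log steps.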

[1] = second compound 0.0316 µM, first compound 0.0316 µM
[2] = second compound 0.0316 µM, first compound 0.1 µM
[3] = second compound 0.0316 µM, first compound 0.316 µM
[4] = second compound 0.0316 µM, first compound 1 µM
[5] = second compound 0.1 µM, first compound 0.0316 µM
[6] = second compound 0.1 µM, first compound 0.1 µM
[7] = second compound 0.1 µM, first compound 0.316 µM
[8] = second compound 0.1 µM, first compound 1 µM
[9] = second compound 0.316 µM, first compound 0.0316 µM
[10] = second compound 0.316 µM, first compound 0.1 µM
[11] = second compound 0.316 µM, first compound 0.316 µM
[12] = second compound 0.316 µM, first compound 1 µM
[13] = second compound 1 µM, first compound 0.0316 µM
[14] = second compound 1 µM, first compound 0.1 µM
[15] = second compound 1 µM, first compound 0.316 µM
[16] = second compound 1 µM, first compound 1 µM
[17] = second compound 3.16 µM, first compound 0.0316 µM
[18] = second compound 3.16 µM, first compound 0.1 µM
[19] = second compound 3.16 µM, first compound 0.316 µM
[20] = second compound 3.16 µM, first compound 1 µM
[21] = second compound 10 µM, first compound 0.0316 µM
[22] = second compound 10 µM, first compound 0.1 µM
[23] = second compound 10 µM, first compound 0.316 µM
[24] = second compound 10 µM, first compound 1 µM
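Further: spheroids exposed to compounds for 7 days before viability readout.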
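Wherever viability, T/C is given: luminescence signal used as surrogate for viable cell content; 100% = DMSO vehicle control viability.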

Compound: COc1cccc(OCCCN)c1-c1cc(Nc2cnc(C#N)cn2)n[nH]1 + Nc1ccc(C#CCN(C(=O)Cc2ncc(C(F)(F)F)cc2C(F)(F)F)c2ccc(F)cc2)nn1
- IC50 (second compound 0.0316 µM): > 1000 nM
- IC50 (second compound 0.1 µM): > 1000 nM
- IC50 (second compound 0.316 µM): > 1000 nM
- IC50 (second compound 1 µM): > 1000 nM
- IC50 (second compound 3.16 µM): > 1000 nM
- IC50 (second compound 10 µM): > 1000 nM
- viability, T/C (second compound 0.0316 µM, first compound 0.00316 µM): 94%
- viability, T/C (second compound 0.0316 µM, first compound 0.01 µM): 94.2%
- viability, T/C [1]: 76.3%
- viability, T/C [2]: 66.6%
- viability, T/C [3]: 74.3%
- viability, T/C [4]: 73.2%
- viability, T/C (second compound 0.1 µM, first compound 0.00316 µM): 91%
- viability, T/C (second compound 0.1 µM, first compound 0.01 µM): 98.2%
- viability, T/C [5]: 74.8%
- viability, T/C [6]: 71.8%
- viability, T/C [7]: 65.4%
- viability, T/C [8]: 71.1%
- viability, T/C (second compound 0.316 µM, first compound 0.00316 µM): 95.5%
- viability, T/C (second compound 0.316 µM, first compound 0.01 µM): 97%
- viability, T/C [9]: 67.7%
- viability, T/C [10]: 66.6%
- viability, T/C [11]: 79.9%
- viability, T/C [12]: 77.8%
- viability, T/C (second compound 1 µM, first compound 0.00316 µM): 96.3%
- viability, T/C (second compound 1 µM, first compound 0.01 µM): 78.4%
- viability, T/C [13]: 73.8%
- viability, T/C [14]: 70.8%
- viability, T/C [15]: 83.5%
- viability, T/C [16]: 73.3%
- viability, T/C (second compound 3.16 µM, first compound 0.00316 µM): 90.3%
- viability, T/C (second compound 3.16 µM, first compound 0.01 µM): 88.9%
- viability, T/C [17]: 68.9%
- viability, T/C [18]: 67.1%
- viability, T/C [19]: 65.2%
- viability, T/C [20]: 83.9%
- viability, T/C (second compound 10 µM, first compound 0.00316 µM): 103%
- viability, T/C (second compound 10 µM, first compound 0.01 µM): 90.3%
- viability, T/C [21]: 74.3%
- viability, T/C [22]: 68.5%
- viability, T/C [23]: 69.1%
- viability, T/C [24]: 95.5%

Compound: COc1cccc2c1C(=O)c1c(O)c3c(c(O)c1C2=O)CC(O)(C(=O)CO)CC3OC1CC(N)C(O)C(C)O1 (centres undefined) + Nc1ccc(C#CCN(C(=O)Cc2ncc(C(F)(F)F)cc2C(F)(F)F)c2ccc(F)cc2)nn1
- IC50 (second compound 0.0316 µM): 1600 nM
- IC50 (second compound 0.1 µM): 1640 nM
- IC50 (second compound 0.316 µM): 1620 nM
- IC50 (second compound 1 µM): 1660 nM
- IC50 (second compound 3.16 µM): 1250 nM
- IC50 (second compound 10 µM): 877 nM
- viability, T/C [1]: 100%
- viability, T/C [2]: 86.6%
- viability, T/C [3]: 95.9%
- viability, T/C [4]: 81.7%
- viability, T/C (second compound 0.0316 µM, first compound 3.16 µM): 3.57%
- viability, T/C (second compound 0.0316 µM, first compound 10 µM): 1.97%
- viability, T/C [5]: 113%
- viability, T/C [6]: 93.3%
- viability, T/C [7]: 85.1%
- viability, T/C [8]: 84.7%
- viability, T/C (second compound 0.1 µM, first compound 3.16 µM): 3.75%
- viability, T/C (second compound 0.1 µM, first compound 10 µM): 2.69%
- viability, T/C [9]: 98.9%
- viability, T/C [10]: 91.9%
- viability, T/C [11]: 84.3%
- viability, T/C [12]: 83%
- viability, T/C (second compound 0.316 µM, first compound 3.16 µM): 4.08%
- viability, T/C (second compound 0.316 µM, first compound 10 µM): 2.88%
- viability, T/C [13]: 99.1%
- viability, T/C [14]: 85.7%
- viability, T/C [15]: 84.5%
- viability, T/C [16]: 86.2%
- viability, T/C (second compound 1 µM, first compound 3.16 µM): 3.81%
- viability, T/C (second compound 1 µM, first compound 10 µM): 3.33%
- viability, T/C [17]: 92.4%
- viability, T/C [18]: 93.9%
- viability, T/C [19]: 99%
- viability, T/C [20]: 61.4%
- viability, T/C (second compound 3.16 µM, first compound 3.16 µM): 1.38%
- viability, T/C (second compound 3.16 µM, first compound 10 µM): 2.89%
- viability, T/C [21]: 106%
- viability, T/C [22]: 97.5%
- viability, T/C [23]: 111%
- viability, T/C [24]: 42.9%
- viability, T/C (second compound 10 µM, first compound 3.16 µM): 1.14%
- viability, T/C (second compound 10 µM, first compound 10 µM): 2.84%
